Assay results: patent US6500849B1, “1-alkyl-, 1-alkenyl-, and 1-alkynylaryl-2-amino 1,3-propanediols and related compounds” (Aventis Pharmaceuticals Inc., priority 1990, dated 2002)
≈ marks a conversion by molar mass, not a printed value. Like-named read-outs stand apart in the source and are kept apart here.

Experiments:
E. coli = assay: Aerobic antibacterial assay (agar dilution, Mueller-Hinton agar); format: cell-based; settings: Escherichia coli, 24 h, read-out: Antibacterial activity (MIC, mg/l)
E. cloacae = assay: as above; settings: Enterobacter cloacae, 24 h, read-out: Antibacterial activity (MIC, mg/l)
Bact. distasonis = assay: Anerobic antibacterial assay (agar dilution, Wilkins-Chalgren agar); format: cell-based; settings: Parabacteroides distasonis, 48 h, read-out: Antibacterial activity (MIC, mg/l)
Microsporum Canis = assay: Antifungal assay (microtitration technique); format: cell-based; settings: 120 h; Microsporum Canis strain 150/353; 5 days at 30° C.
Protocol: (§1) The microtiter plate is prepared as follows: The wells are each filled (2 rows/strain) with 50 μl neopeptone-dextrose broth (12-channel pipette). In addition, one row/strain is coated with 50 μl yeast-nitrogen base/well for yeasts and moulds. […] All wells are then inoculated with 150 μl standardized organism suspension (yeasts: 1×10^3 organisms/ml suspension; cutaneous fungi and moulds: 1.6×10^5 organisms/ml suspension); the total volume is 200 μl per well. There is also a growth control (inoculated, not medicated), a solvent control (inoculated, not medicated, containing solvent as in medicated rows) and a negative control (not inoculated, not medicated). Incubation for 5 days at 30° C. is followed by photometric evaluation. The obtained measurements are checked visually (macroscopically and microscopically) and corrected where necessary. Criteria for Evaluation of the Antimycotic Effect a. Photometric measurements (matrix method) b. Growth, macroscopic evaluation c. Growth, microscopic evaluation (inversion light microscope, magn. 64×).

Candida Albicans = assay: Antifungal assay (microtitration technique); format: cell-based; settings: 120 h; Candida Albicans strain 200/175; 5 days at 30° C.
Protocol: as §1

[1] = tested on: Trichophyton Mentagrophytes; assay: Antifungal assay (microtitration technique); format: cell-based; settings: 120 h; Trichophyton Mentagrophytes strain 100/25; 5 days at 30° C.
Protocol: as §1

Trichophyton Rubrum = assay: Antifungal assay (microtitration technique); format: cell-based; settings: 120 h; Trichophyton Rubrum strain 101/85; 5 days at 30° C.
Protocol: as §1

Aspergillus Niger = assay: Antifungal assay (microtitration technique); format: cell-based; settings: 120 h; Aspergillus Niger strain 500/284; 5 days at 30° C.
Protocol: as §1

Trichophyton Vaginalis = assay: Antifungal assay (microtitration technique); format: cell-based; settings: 120 h; Trichophyton Vaginalis strain 111/216; 5 days at 30° C.
Protocol: as §1

Fusobact. varium = assay: Anerobic antibacterial assay (agar dilution, Wilkins-Chalgren agar); format: cell-based; settings: 48 h, read-out: Antibacterial activity (MIC, mg/l)
Clost. perfringens = assay: microbe, parasite or virus in culture; format: cell-based; settings: Clostridium perfringens, 48 h, read-out: Antibacterial activity (MIC, mg/l)
Klebsiella spp. = assay: Aerobic antibacterial assay (agar dilution, Mueller-Hinton agar); settings: Klebsiella, 24 h, read-out: Antibacterial activity (MIC, mg/l)
Bact. fragilis = assay: Anerobic antibacterial assay (agar dilution, Wilkins-Chalgren agar); format: cell-based; settings: Bacteroides fragilis, anaerobic, 48 hours at 37° C.
Peptostr. anaerobius = assay: as above; format: cell-based; settings: 48 h, read-out: Antibacterial activity (MIC, mg/l)
Propionibact. acnes = assay: as above; format: cell-based; settings: 48 h, read-out: Antibacterial activity (MIC, mg/l)
Spaeroph. freundii = assay: as above; format: cell-based; settings: 48 h, read-out: Antibacterial activity (MIC, mg/l)
Bact. vulgatus = assay: as above; format: cell-based; settings: Phocaeicola vulgatus, 48 h, read-out: Antibacterial activity (MIC, mg/l)
Strept. faecium = assay: Aerobic antibacterial assay (agar dilution, Mueller-Hinton agar); settings: Enterococcus faecium, 24 h, read-out: Antibacterial activity (MIC, mg/l)
Bact. ovatus = assay: Anerobic antibacterial assay (agar dilution, Wilkins-Chalgren agar); format: cell-based; settings: Bacteroides ovatus; Bact. ovatus 103; anaerobic; 48 hours at 37° C.; read-out: Antibacterial activity (MIC, mg/l)
Clost. tetani = assay: as above; format: cell-based; settings: Clostridium tetani, 48 h, read-out: Antibacterial activity (MIC, mg/l)
Staph. aureus = assay: Aerobic antibacterial assay (agar dilution, Mueller-Hinton agar); settings: Staphylococcus aureus, 24 h
Bact. thetaiotaom. = assay: Anerobic antibacterial assay (agar dilution, Wilkins-Chalgren agar); format: cell-based; settings: anaerobic, 48 hours at 37° C.
Strept. pyogenes = assay: Aerobic antibacterial assay (agar dilution, Mueller-Hinton agar); settings: Streptococcus pyogenes, 24 h, read-out: Antibacterial activity (MIC, mg/l)
S. typhimurium = assay: as above; settings: Salmonella enterica, TYPHIMURIUM, 24 h, read-out: Antibacterial activity (MIC, mg/l)

**Q.** `CCCCCCCCCCc1cccc(C(O)C(N)CO)n1` (stereo not drawn) [erythro-2-Amino-1-(6-Decyl-2-pyridinyl)-1,3-dihydroxypropane] was tested. Which MIC (E. coli; E. coli 1507E, 24 hours at 37° C.) did it give?
**A.** The MIC was 12.5 mg/L (≈ 40.5 µM).

**Q.** What about the MIC (E. coli; E. coli DC0, 24 hours at 37° C.) of the same molecule?
**A.** Its MIC is 12.5 mg/L (≈ 40.5 µM).

**Q.** What about the MIC (E. coli; E. coli DC2, 24 hours at 37° C.) of the same molecule?
**A.** Its MIC is 6.25 mg/L (≈ 20.3 µM).

**Q.** And the MIC (E. coli; E. coli O 78, 24 hours at 37° C.)?
**A.** The MIC was 12.5 mg/L (≈ 40.5 µM).

**Q.** And the MIC (E. coli; E. coli TEM, 24 hours at 37° C.)?
**A.** Its MIC is 25 mg/L (≈ 81 µM).

**Q.** And the MIC (E. cloacae)?
**A.** The MIC was 12.5 mg/L (≈ 40.5 µM).

**Q.** And the MIC (Bact. distasonis)?
**A.** The MIC was 12.5 mg/L (≈ 40.5 µM).

**Q.** And the MIC (Microsporum Canis)?
**A.** Its MIC is 31.2 µg/mL (≈ 101 µM).

**Q.** What about the MIC (Candida Albicans) of the same molecule?
**A.** The MIC was 31.2 µg/mL (≈ 101 µM).

**Q.** What about the MIC [1] of the same molecule?
**A.** The MIC was 31.2 µg/mL (≈ 101 µM).

**Q.** What about the MIC (Trichophyton Rubrum) of the same molecule?
**A.** The MIC was 31.2 µg/mL (≈ 101 µM).

**Q.** And the MIC (Aspergillus Niger)?
**A.** The MIC was 31.2 µg/mL (≈ 101 µM).

**Q.** What about the MIC (Trichophyton Vaginalis) of the same molecule?
**A.** Its MIC is 15.6 µg/mL (≈ 50.7 µM).

**Q.** What about the MIC (Fusobact. varium) of the same molecule?
**A.** The MIC was 12.5 mg/L (≈ 40.5 µM).

**Q.** And the MIC (Clost. perfringens)?
**A.** Its MIC is 12.5 mg/L (≈ 40.5 µM).

**Q.** What about the MIC (Klebsiella spp.) of the same molecule?
**A.** The MIC was 12.5 mg/L (≈ 40.5 µM).

**Q.** And the MIC (Bact. fragilis; 48 h, read-out: Antibacterial activity (MIC, mg/l), Bact. fragilis 312)?
**A.** The MIC was 12.5 mg/L (≈ 40.5 µM).

**Q.** What about the MIC (Bact. fragilis; 48 h, read-out: Antibacterial activity (MIC, mg/l), Bact. fragilis 1313) of the same molecule?
**A.** Its MIC is 12.5 mg/L (≈ 40.5 µM).

**Q.** What about the MIC (Bact. fragilis; 48 h, read-out: Antibacterial activity (MIC, mg/l), Bact. fragilis 17390) of the same molecule?
**A.** The MIC was 12.5 mg/L (≈ 40.5 µM).

**Q.** And the MIC (Bact. fragilis; 48 h, read-out: Antibacterial activity (MIC, mg/l), Bact. fragilis 18125)?
**A.** Its MIC is 12.5 mg/L (≈ 40.5 µM).

**Q.** What about the MIC (Bact. fragilis; 48 h, read-out: Antibacterial activity (MIC, mg/l), Bact. fragilis 19016) of the same molecule?
**A.** Its MIC is 12.5 mg/L (≈ 40.5 µM).

**Q.** And the MIC (Bact. fragilis; Bact. fragilis 960, read-out: Antibacterial activity (MIC, mg/l))?
**A.** Its MIC is 6.25 mg/L (≈ 20.3 µM).

**Q.** What about the MIC (Peptostr. anaerobius) of the same molecule?
**A.** Its MIC is 12.5 mg/L (≈ 40.5 µM).

**Q.** What about the MIC (Propionibact. acnes) of the same molecule?
**A.** Its MIC is 12.5 mg/L (≈ 40.5 µM).

**Q.** What about the MIC (Spaeroph. freundii) of the same molecule?
**A.** Its MIC is 12.5 mg/L (≈ 40.5 µM).

**Q.** And the MIC (Bact. vulgatus)?
**A.** The MIC was 12.5 mg/L (≈ 40.5 µM).

**Q.** What about the MIC (Strept. faecium) of the same molecule?
**A.** Its MIC is 12.5 mg/L (≈ 40.5 µM).

**Q.** And the MIC (Bact. ovatus)?
**A.** The MIC was 6.25 mg/L (≈ 20.3 µM).

**Q.** What about the MIC (Clost. tetani) of the same molecule?
**A.** Its MIC is 12.5 mg/L (≈ 40.5 µM).

**Q.** What about the MIC (Staph. aureus; read-out: Antibacterial activity (MIC, mg/l)) of the same molecule?
**A.** The MIC was 6.25 mg/L (≈ 20.3 µM).

**Q.** And the MIC (Staph. aureus; read-out: Antibacterial activity (MIC, mg/l), Staph. aureus 285, aerobic, 24 hours at 37° C.)?
**A.** Its MIC is 12.5 mg/L (≈ 40.5 µM).

**Q.** What about the MIC (Staph. aureus; read-out: Antibacterial activity (MIC, mg/l), Staph. aureus SG511, aerobic, 24 hours at 37° C.) of the same molecule?
**A.** Its MIC is 12.5 mg/L (≈ 40.5 µM).

**Q.** And the MIC (Bact. thetaiotaom.; 48 h, read-out: Antibacterial activity (MIC, mg/l), Bact. thetaiotaom. 1428)?
**A.** The MIC was 12.5 mg/L (≈ 40.5 µM).

**Q.** And the MIC (Bact. thetaiotaom.; 48 h, read-out: Antibacterial activity (MIC, mg/l), Bact. thetaiotaom. 1445)?
**A.** Its MIC is 12.5 mg/L (≈ 40.5 µM).

**Q.** And the MIC (Bact. thetaiotaom.; Bact. thetaiotaom. 123, read-out: Antibacterial activity (MIC, mg/l))?
**A.** Its MIC is 6.26 mg/L (≈ 20.3 µM).

**Q.** And the MIC (Strept. pyogenes)?
**A.** Its MIC is 6.25 mg/L (≈ 20.3 µM).

**Q.** And the MIC (S. typhimurium)?
**A.** Its MIC is 12.5 mg/L (≈ 40.5 µM).
